Data published in US11530244B2, “Cyclic polypeptides for PCSK9 inhibition” (priority 2018, dated 2022).
Starred links: 1 amine or outer side, 2 acyl side, 3 side chain; linkers in the order of their positions; H or OH if unused. Positions of bridges follow the written chain, without caps; N, C: chain ends. Non-standard residues stand in square brackets, D forms with d. Residues, ends and D or L forms follow the SMILES beside them. Groups on a side chain read outwards from the residue. *: point of attachment. Phe(3-CH2NH2) = O=C([C@H](Cc1cccc(CN[*:3])c1)N[*:1])[*:2]; Trp(5-F) = N[C@@H](Cc1c[nH]c2ccc(F)cc12)C(=O)O; Phe(4-CH2NH2) = NCc1ccc(C[C@H](N)C(=O)O)cc1; X45 = O=C(CCC(=O)[*:1])NCc1ccc(CCN[*:2])cc1; X3 = O=C(CCSCc1cc(F)cc(CSCCN[*:1])c1)[*:2]; Pro(cis-4-F) = O=C(O)[C@@H]1C[C@H](F)CN1; X4 = O=C(CCSCc1cccc(CSCCN[*:1])c1)[*:2]; γGlu = O=C(O)[C@H](CCC(=O)[*:2])N[*:1]; mXylylene = c1cc(C[*:1])cc(C[*:2])c1; AEF = NCCOc1ccc(C[C@H](N)C(=O)O)cc1; X48 = CC(N[*:1])c1ncc(C(=O)[*:2])s1; Glutaryl = O=C(CCCC(=O)[*:2])[*:1]; Palmitoyl = CCCCCCCCCCCCCCCC(=O)*; X46 = O=C(C[*:2])NCCCCC(=O)[*:1]; X44 = O=C(C[*:2])NCCCC(=O)[*:1]; aThr = C[C@H](O)[C@H](N)C(=O)O; PEG4 = NCCOCCOCCOCCOCCC(=O)O; αMeP = C[C@@]1(C(=O)O)CCCN1; Dap = NC[C@H](N)C(=O)O; AEEA = NCCOCCOCC(=O)O; X37 = O=C(CC1CC1)*; AEA = NCCOCC(=O)O; Mpa = O=C(O)CCS

Experiments:
[1] = target: T1, PCSK9 (Homo sapiens (Human), UniProt Q8NBP7); assay: PCSK9 Alexa FRET Standard assay (displacement of AlexaFluor647 tagged cyclic peptide Reagent A); format: binding; settings: PCSK9 Alexa FRET Standard assay, 0.5 nM PCSK9, 20 nM AF cyclic peptide Reagent A; read-out: IC50
How it was run: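 TR-FRET displacement: 0.5 nM biotinylated PCSK9 with 1.25 nM Strep-Eu and 20 nM AlexaFluor-tagged cyclic peptide (final) in 50 mM HEPES pH 7.4, 0.15 M NaCl, 5 mM CaCl2, 0.01% BSA, 0.01% P20, ≥2 h at room temperature. IC50 from sigmoidal fit, converted to Ki via peptide KD; falling Eu counts flagged false positives.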

[2] = target: T1, PCSK9; assay: PCSK9 Alexa FRET Plus assay (displacement of AlexaFluor647 tagged cyclic peptide Reagent B); format: binding; settings: 0.5 nM PCSK9, 960 nM AF cyclic peptide Reagent B
Experimental: A solution containing 1 nM biotinylated PCSK9+2.5 nM Lance Streptavidin Europium (Strep-Eu) was made in 50 mM HEPES pH 7.4, 0.15 M NaCl, 5 mM CaCl2), 0.01% BSA, and 0.01% Surfactant P20. A separate solution containing 1920 nM of the AlexaFluor tagged cyclic peptide was made in the same buffer system. An Echo was used to transfer 0.075 ul of compound plus 0.675 ul of DMSO to each well of an assay plate followed by the addition of 15 ul of PCSK9+Stept-Eu and 15 ul of AF peptide. The final assay volume was 30.750 ul containing 0.5 nM PCSK9, 1.25 nM Strep-Eu, and 960 nM AF cyclic peptide. The reaction was incubated at room temperature for at least two hours prior to fluorescence measurements using an Envision Multilabel Reader. IC50 values were determined by fitting data to a sigmoidal dose-response curve using nonlinear regression. Ki was then calculated from the IC50 and the KD of AF cyclic peptide. Counts (B-counts) of the europium-labeled PCSK9 were followed to observe if compounds were adversely affecting PCSK9. A fall off of the B-counts likely indicated a false positive of inhibition. Data from this procedure was reported as “P=‘numerical value’ (nanomolar)”

[3] = Alexa FRET Plus, read-out: IC50

T1 sequence (Q8NBP7 153-692): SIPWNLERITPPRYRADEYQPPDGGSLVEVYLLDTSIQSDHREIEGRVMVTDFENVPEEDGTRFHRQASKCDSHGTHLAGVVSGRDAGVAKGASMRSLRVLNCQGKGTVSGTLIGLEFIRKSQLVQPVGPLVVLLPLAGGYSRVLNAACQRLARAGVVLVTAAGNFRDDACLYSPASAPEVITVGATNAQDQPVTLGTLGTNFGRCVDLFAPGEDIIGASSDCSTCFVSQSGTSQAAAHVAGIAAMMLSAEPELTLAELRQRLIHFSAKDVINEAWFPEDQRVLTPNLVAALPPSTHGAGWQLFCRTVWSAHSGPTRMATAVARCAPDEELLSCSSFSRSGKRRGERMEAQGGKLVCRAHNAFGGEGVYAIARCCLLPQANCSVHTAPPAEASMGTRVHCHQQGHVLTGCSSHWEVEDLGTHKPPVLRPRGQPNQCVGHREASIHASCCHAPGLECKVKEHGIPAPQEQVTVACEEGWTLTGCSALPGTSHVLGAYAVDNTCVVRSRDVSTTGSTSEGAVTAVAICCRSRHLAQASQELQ

Structure (SMILES)	IC50 [1] [nM]	IC50 [2, 3] [nM]	IC50 ([2]; IC50, Alexa FRET Plus) [nM]
CCCCCCCCCCCCCCCC(=O)N[C@@H](CCC(=O)NCCOCCOCCC(=O)NCCOCCOCC(=O)NCCCC[C@H](NC(=O)COCCOCCOCCOCCOCCOCCOCCOCCOCCOCCOCCOCCNC(=O)[C@@H]1CSCc2cccc(c2)CSCCC(=O)N[C@@H](CCCCN)C(=O)N[C@H](C)C(=O)N[C@@H](Cc2c[nH]c3ccc(F)cc23)C(=O)N[C@@H](Cc2c[nH]c3ccc(F)cc23)C(=O)N[C@@H](CC(=O)O)C(=O)N[C@@H](Cc2cnc[nH]2)C(=O)N[C@@H](Cc2ccc(O)cc2)C(=O)N2CCC[C@@]2(C)C(=O)N1)C(N)=O)C(=O)O [Compound 474]	1000 to 12100	500 to 5000	
COc1ccc(C[C@@H]2NC(=O)[C@H]([C@H](C)O)NC(=O)[C@@H]3C[C@H](F)CN3C(=O)[C@H](Cc3c[nH]c4ccc(F)cc34)NC(=O)[C@H](Cc3c[nH]c4ccc(F)cc34)NC(=O)[C@@H](C)NC(=O)[C@H](CCCCN)NC(=O)CCC(=O)NCc3ccc(cc3)CCNC(=O)[C@]3(C)CCCN3C2=O)cc1 [Compound 111] (K[dA][Trp(5-F)][Trp(5-F)][Pro(cis-4-F)][aThr]Y(Me)[αMeP]; linker N-C via X45)	0.11 to 100		0.1 to 100
CCCCCCCCCCCCCCCC(=O)N[C@@H](CCC(=O)NCCOCCOCC(=O)NCCOCCOCC(=O)NCCCC[C@@H]1NC(=O)[C@H](CCCCN)NC(=O)CCSCc2cccc(c2)CSC[C@@H](C(N)=O)NC(=O)[C@]2(C)CCCN2C(=O)[C@H](Cc2ccc(O)cc2)NC(=O)[C@H](Cc2cnc[nH]2)NC(=O)[C@H](CC(=O)O)NC(=O)[C@H](Cc2c[nH]c3ccc(F)cc23)NC(=O)[C@H](Cc2c[nH]c3ccc(F)cc23)NC1=O)C(=O)O [Compound 452] ([Mpa]KK([AEEA-AEEA-γGlu-Palmitoyl])[Trp(5-F)][Trp(5-F)]DHY[αMeP]C-NH2; linker 1-10 via mXylylene)	0.11 to 100	0.1 to 100	
COc1ccc(C[C@@H]2NC(=O)[C@H]([C@@H](C)O)NC(=O)[C@@H]3C[C@H](F)CN3C(=O)[C@H](Cc3c[nH]c4ccc(F)cc34)NC(=O)[C@H](Cc3c[nH]c4ccc(F)cc34)NC(=O)[C@@H](C)NC(=O)[C@H](CCCCN)NC(=O)CCCNC(=O)COc3ccc(cc3)C[C@@H](C(N)=O)NC(=O)[C@]3(C)CCCN3C2=O)cc1 [Compound 092] (K[dA][Trp(5-F)][Trp(5-F)][Pro(cis-4-F)]TY(Me)[αMeP]Y-NH2; linker N-9 via X44)	0.11 to 100	0.1 to 100	
COc1ccc(C[C@@H]2NC(=O)[C@H]([C@@H](C)O)NC(=O)[C@@H]3C[C@H](F)CN3C(=O)[C@H](Cc3c[nH]c4ccc(F)cc34)NC(=O)[C@H](Cc3c[nH]c4ccc(F)cc34)NC(=O)[C@@H](C)NC(=O)[C@H](CCCCN)NC(=O)[C@@H](NC(=O)CC3CC3)CC(=O)NCCOc3ccc(cc3)C[C@@H](C(N)=O)NC(=O)[C@]3(C)CCCN3C2=O)cc1 [Compound 108] (X37-DK[dA][Trp(5-F)][Trp(5-F)][Pro(cis-4-F)]TY(Me)[αMeP][AEF]-NH2; lactam 1-10)	0.11 to 100	500 to 5000	
CCCCCCCCCCCCCCCC(=O)N[C@@H](CCC(=O)NCCOCCOCC(=O)NCCOCCOCC(=O)NCc1cccc(C[C@@H]2NC(=O)[C@@H](C)NC(=O)[C@H](CCCCN)NC(=O)CCSCc3cccc(c3)CSC[C@@H](C(N)=O)NC(=O)[C@]3(C)CCCN3C(=O)[C@H](Cc3ccc(O)cc3)NC(=O)[C@H](Cc3cnc[nH]3)NC(=O)[C@H](CC(=O)O)NC(=O)[C@H](Cc3c[nH]c4ccc(F)cc34)NC2=O)c1)C(=O)O [Compound 476] ([Mpa]K[dA][Phe(3-CH2NH2)]([AEEA-AEEA-γGlu-Palmitoyl])[Trp(5-F)]DHY[αMeP]C-NH2; linker 1-10 via mXylylene)	0.11 to 100	100 to 500	
COc1ccc(C[C@@H]2NC(=O)[C@H](Cc3cnc[nH]3)NC(=O)[C@H](CC(=O)O)NC(=O)[C@H](Cc3c[nH]c4ccc(F)cc34)NC(=O)[C@H](Cc3c[nH]c4ccc(F)cc34)NC(=O)[C@@H](C)NC(=O)[C@H](CNC(=O)COCCN)NC(=O)CCSCc3cc(F)cc(c3)CSCCNC(=O)[C@]3(C)CCCN3C2=O)cc1 [Compound 423] (cyclo(DHY(Me)[αMeP][X3][Dap](AEA)[dA][Trp(5-F)][Trp(5-F)]))	0.11 to 100	0.1 to 100	
COc1ccc(C[C@@H]2NC(=O)[C@H]([C@@H](C)O)NC(=O)[C@@H]3C[C@H](F)CN3C(=O)[C@H](Cc3c[nH]c4ccc(F)cc34)NC(=O)[C@H](Cc3c[nH]c4ccc(F)cc34)NC(=O)[C@@H](C)NC(=O)[C@H](CCCCN)NC(=O)CCCCNC(=O)COc3ccc(cc3)C[C@@H](C(N)=O)NC(=O)[C@]3(C)CCCN3C2=O)cc1 [Compound 117] (K[dA][Trp(5-F)][Trp(5-F)][Pro(cis-4-F)]TY(Me)[αMeP]Y-NH2; linker N-9 via X46)	0.11 to 100	500 to 5000	
C[C@@]12CCCN1C(=O)[C@H](Cc1ccc(O)cc1)NC(=O)CN1C(=O)[C@@H](CCc3ccccc31)NC(=O)[C@H](Cc1c[nH]c3ccc(F)cc13)NC(=O)[C@H](Cc1c[nH]c3ccc(F)cc13)NC(=O)CNC(=O)[C@H](CCCCN)NC(=O)CCSCc1cccc(c1)CSC[C@@H](C(N)=O)NC2=O [Compound 109]	0.11 to 100	100 to 500	
C[C@@]12CCCN1C(=O)[C@H](Cc1ccc(O)cc1)NC(=O)N[C@@H]1CCCc3ccc(cc31)C(=O)[C@H](Cc1c[nH]c3ccc(F)cc13)NC(=O)[C@H](Cc1c[nH]c3ccc(F)cc13)NC(=O)CNC(=O)[C@H](CCCCN)NC(=O)CCSCc1cccc(c1)CSC[C@@H](C(N)=O)NC2=O [Compound 140]	0.11 to 100	100 to 500	
COc1ccc(C[C@@H]2NC(=O)[C@H]([C@H](C)O)NC(=O)[C@H]3CCCN3C(=O)[C@H](Cc3c[nH]c4ccc(F)cc34)NC(=O)[C@H](Cc3c[nH]c4ccc(F)cc34)NC(=O)[C@@H](C)NC(=O)[C@H](CCCCN)NC(=O)CCSCc3cccc(c3)CSCCNC(=O)[C@]3(C)CCCN3C2=O)cc1 [Compound 103] (cyclo(K[dA][Trp(5-F)][Trp(5-F)][dP][aThr]Y(Me)[αMeP][X4]))	0.11 to 100	500 to 5000	
COc1ccc(C[C@@H]2NC(=O)[C@H](Cc3cnc[nH]3)NC(=O)[C@H](CC(=O)O)NC(=O)[C@H](Cc3c[nH]c4ccc(F)cc34)NC(=O)[C@H](Cc3c[nH]c4ccc(F)cc34)NC(=O)[C@@H](C)NC(=O)CCCC(=O)NCc3ccc(cc3)C[C@@H](C(N)=O)NC(=O)[C@]3(C)CCCN3C2=O)cc1 [Compound 417] ([dA][Trp(5-F)][Trp(5-F)]DHY(Me)[αMeP][Phe(4-CH2NH2)]-NH2; linker N-8 via Glutaryl)	0.11 to 100	100 to 500	
CC1NC(=O)[C@H](Cc2c[nH]c3ccc(F)cc23)NC(=O)[C@H](Cc2c[nH]c3ccc(F)cc23)NC(=O)[C@@H](C)NC(=O)[C@H](CCCCN)NC(=O)CCSCc2cccc(c2)CSC[C@@H](C(N)=O)NC(=O)[C@]2(C)CCCN2C(=O)[C@H](Cc2ccc(O)cc2)NC(=O)C2=CN=C1S2 (stereo partly shown) [Compound 480] ([Mpa]K[dA][Trp(5-F)][Trp(5-F)][X48]Y[αMeP]C-NH2; linker 1-9 via mXylylene)	100 to 1000	500 to 5000	
COc1ccc(C[C@@H]2NC(=O)[C@H](Cc3cnc[nH]3)NC(=O)[C@H](CC(=O)O)NC(=O)[C@H](Cc3c[nH]c4ccc(F)cc34)NC(=O)[C@H](Cc3c[nH]c4ccc(F)cc34)NC(=O)[C@@H](C)NC(=O)CCc3cn(nn3)-c3ccc(cc3)C[C@@H](C(N)=O)NC(=O)[C@]3(C)CCCN3C2=O)cc1 [Compound 416]	0.11 to 100	0.1 to 100	
C[C@@]12CCCN1C(=O)[C@H](Cc1ccc(O)cc1)NC(=O)[C@H](Cc1cnc[nH]1)NC(=O)[C@H](CC(=O)O)NC(=O)[C@H](Cc1c[nH]c3ccc(F)cc13)NC(=O)[C@H](Cc1c[nH]c3ccc(F)cc13)NC(=O)CNC(=O)[C@H](CCCCNC(=O)CCOCCOCCOCCOCCN)NC(=O)CCSCc1cccc(c1)CSC[C@@H](C(N)=O)NC2=O [Compound 485] ([Mpa]K(PEG4)G[Trp(5-F)][Trp(5-F)]DHY[αMeP]C-NH2; linker 1-10 via mXylylene)	0.11 to 100	0.1 to 100	
COc1ccc(C[C@@H]2NC(=O)[C@H]([C@@H](C)O)NC(=O)[C@@H]3C[C@H](F)CN3C(=O)[C@H](Cc3c[nH]c4ccc(F)cc34)NC(=O)[C@H](Cc3c[nH]c4ccc(F)cc34)NC(=O)[C@@H](C)NC(=O)[C@H](CCCCN)NC(=O)[C@@H](NC(C)=O)CCCCCc3ccc(cc3)C[C@@H](C(N)=O)NC(=O)[C@]3(C)CCCN3C2=O)cc1 [Compound 141]	100 to 1000	500 to 5000	
CCCCCCCCCCCCCCCC(=O)N[C@@H](CCC(=O)NCCOCCOCC(=O)NCCOCCOCC(=O)NCc1cccc(C[C@@H]2NC(=O)[C@@H](C)NC(=O)[C@H](CCCCN)NC(=O)CCSCc3cccc(c3)CSC[C@@H](C(N)=O)NC(=O)[C@]3(C)CCCN3C(=O)[C@H](Cc3ccc(O)cc3)NC(=O)[C@H](Cc3cnc[nH]3)NC(=O)[C@H](CC(=O)O)NC(=O)[C@H](Cc3c[nH]c4ccc(F)cc34)NC2=O)c1)C(=O)O [Compound 454] ([Mpa]K[dA][Phe(3-CH2NH2)]([AEEA-AEEA-γGlu-Palmitoyl])[Trp(5-F)]DHY[αMeP]C-NH2; linker 1-10 via mXylylene)	0.11 to 100	100 to 500	
